Data published in patent US20150190369A1, “QUERCETIN-3-GLUCOSIDE AND USES THEREOF” (priority 2012, published 2015).

Key:
LDLR mRNA = assay: Quantitative RT-PCR for LDLR mRNA in Huh7 cells; format: cell-based, human; settings: Huh7, 24 h, 10% LPDS, 0 to 10 μM Q3G; maximum at 2 μM, relative to no Q3G
Experimental: At passage, Huh7 cells were routinely seeded at sub-confluence (˜10^6 cells/10-cm dish) in Dulbecco's modified Eagle's medium (DMEM) containing 10% fetal bovine serum (FBS) or LPDS (for experiments) and 50 μg/ml gentamycin. They were incubated overnight at 37° C., in a humidified 5% CO2-95% air atmosphere. Cells were treated or not with Q3G at defined concentrations and for defined lengths of time. Media were collected and centrifuged at 200 g for 5 min to sediment suspended cells; supernatants were collected and supplemented with 0.33 volumes of a 3×-concentrated PIC. Cell monolayers were rinsed with ice-cold phosphate-buffered saline (PBS); they were overlaid with […] the RIPA lysis buffer (50 mM Tris-HCl, pH 8, 150 mM NaCl, 1% NP-40, 0.5% Na-deoxycholate and 0.1% SDS) supplemented with 1× PIC. After 20 min in an ice bath, the lysates were centrifuged at 14,000 g and 4° C. for 20 min, and supernatants were collected. Conditioned media and lysates were stored at −20° C. until analysis. […]
Standard curves were established using varying amounts of purified and quantified cDNA amplicons of each mRNA. […]
Huh7 cells, hepatocyte derived cellular carcinoma cells, were incubated for 24 h in medium containing 10% lipoprotein-depleted serum (LPDS) and 0 to 10 μM Q3G. The level of LDLR mRNA was measured by quantitative real-time RT-PCR; that of the LDLR protein by semi-quantitative immunoblotting. […]

Huh7 cells = assay: LDL uptake assay with bodipy-LDL; format: cell-based, human; settings: Huh7, 5 μM Q3G for 24 h
Experimental: Huh7 cells were seeded in 96-well black-bottom plates at 4×10^4 cells/well in 0.1 ml complete medium and allowed to attach by overnight incubation at 37° C. They were rinsed with PBS-D, overlaid with 0.1 ml of DMEM/10% LPDS and incubated at 37° C. for 24 h. After a PBS-D rinse, they were overlaid with 0.1 ml DMEM/0.5% LPDS containing or not 5 μM Q3G and incubated 37° C. for 24 h. To assay for LDL uptake ability, cells were rinsed, first with pre-warmed (37° C.) PBS-D, then with pre-warmed DMEM/0.5% LPDS. They were overlaid with 75 μl of the latter medium containing […] bodipy-LDL, and then incubated at 37° C. for 15 min or 30 min to allow LDLR-mediated endocytosis of the fluorescent lipoprotein. […] Intracellular fluorescence was measured in a SpectraMax Gemini XS fluorescence plate reader (Molecular Devices) at the excitation and emission wavelengths of 485 and 535 nm, respectively. Non-specific fluorescence was measured by incubating cells in medium containing bodipy-LDL (20 μg/ml) and a 12.5× excess of non-fluorescent LDL (250 μg/ml).
To verify this prediction, cells were incubated overnight in medium supplemented with LPDS to promote expression of the LDLR; they were then treated with 5 μM Q3G for 24 h and exposed to fluorescent bodipy-LDL for 15 or 30 min; after washing, accumulated intracellular LDL was measured by fluorescence spectrometry.

ABCG1 = assay: Immunoblotting for ABCG1 in MIN6 β-cells; format: cell-based, mouse; settings: MIN6, Q3G-treated
Experimental: The corresponding photographs of the immunoblotting results are also shown. MIN6 cells were incubated for 24 h in the presence of 16 μM Q3G. Cell lysates were analyzed by semi-quantitative immunoblotting using different antibodies successively.
Mouse insulinoma MIN6 cells were cultured in a 5% CO2-95% air atmosphere at 37° C. in DMEM medium containing 10% heat-inactivated fetal bovine serum, 1 mM Na-pyruvate, 2 mM L-glutamine, 25 mM D-glucose, and 28 μM β-mercaptoethanol. Q3G at a specific final concentration was supplemented to the culture medium and incubation was conducted for a selected length of time. Media were collected, spun at 600 g to sediment suspended cells, supplemented with 0.5 volumes of 3×RIPA-PIC (1×: 50 mM Tris-HCl, pH 8, 150 mM NaCl, 1% NP-40, 0.5% Na-deoxycholate and 0.1% SDS and PIC). Cells were lysed in 1×RIPA-PIC for immuno-blotting, or in RNA extraction buffer for qRT-PCR.
Cell lysates were fractionated by SDS-PAGE and electrophoretically transferred onto a polyvinylidene fluoride membrane. […] The signal was captured on X-ray film and immunoreactive bands analyzed by densitometry on a Syngene's ChemiGenius^2XE Bio Imaging System (Cambridge, Mass.) within the dynamic range of the instrument. […]

O=c1c(O[C@@H]2O[C@H](CO)[C@@H](O)[C@H](O)[C@H]2O)c(-c2ccc(O)c(O)c2)oc2cc(O)cc(O)c12 [Q3G, quercetin-3-O-β-D-glucoside]
increase of intracellular content of LDLR mRNA (maximum) (LDLR mRNA): 2 × | accumulated intracellular LDL versus untreated cells (Huh7 cells; bodipy-LDL for 15 min): 4 fold | accumulated intracellular LDL versus untreated cells (Huh7 cells; bodipy-LDL for 30 min): 2.5 fold | relative amount of ABCG1 protein compared with mRNA (ABCG1): in concordance with the relative amounts of mRNA
